Measurements taken from patent US6492373B2, “6-fluoro-1,4-dihydro-7-[4-(2-hydroxyiminoethyl)-1-piperazinyl]-4-oxoquinoline-3-carboxylic acid derivatives, their preparation and pharmaceutical compositions” (Pharmaceutical Industry Technology and Development Center, priority 2000, dated 2002).
In brackets after ≈: the same amount, converted by molar mass.

Tests used:
[1] = tested on: Staphylococcus pneumoniae, Erythromycin and Ampicillin resistant, clinical isolates; experiment: In vitro antibacterial activity, MIC by broth dilution; assay type: cell-based; settings: for MIC: Staphylococcus, 20-72 hours at 37° C., Tryptic Soy Broth with 7% calf serum
[2] = tested on: Mycobacterium ranae; experiment: as above; assay type: cell-based; settings: for MIC: Mycobacterium, 20-72 hours at 37° C., Brain Heart Infusion broth
[3] = tested on: Klebsiella pneumoniae; experiment: as above; assay type: cell-based
[4] = tested on: Escherichia coli; experiment: as above; assay type: cell-based; settings: for MIC: Escherichia coli, 20-72 hours at 37° C., Nutrient Broth
[5] = tested on: Pseudomonas aeruginosa; experiment: as above; assay type: cell-based; settings: for MIC: Pseudomonas aeruginosa, 20-72 hours at 37° C., Nutrient Broth
[6] = tested on: Staphylococcus aureus, Methicillin Resistant (MRSA); experiment: as above; assay type: cell-based; settings: for MIC: Staphylococcus aureus, MRSA, 20-72 hours at 37° C., Mueller-Hinton broth
[7] = tested on: Proteus vulgaris; experiment: as above; assay type: cell-based; settings: for MIC: Proteus vulgaris, 20-72 hours at 37° C., Mueller-Hinton broth
[8] = tested on: Enterococcus faecalis, Vancomycin resistant, clinical isolates; experiment: In vitro antibacterial activity, MIC by broth dilution; assay type: cell-based; settings: for MIC: Enterococcus faecalis, 20-72 hours at 37° C., Tryptic Soy Broth with 7% calf serum
[9] = tested on: CAKI-1 (renal cancer); experiment: NCI in vitro tumor cell growth inhibition (GI50); assay type: cell-based; settings: Homo sapiens
[10] = tested on: CCRF-CEM (leukemia); experiment: NCI in vitro tumor cell growth inhibition (GI50); assay type: cell-based; settings: Homo sapiens
[11] = tested on: HL-60 (TB) (leukemia); experiment: NCI in vitro tumor cell growth inhibition (GI50); assay type: cell-based; settings: Homo sapiens
[12] = tested on: NCI-H226 (non-small cell lung cancer); experiment: NCI in vitro tumor cell growth inhibition (GI50); assay type: cell-based; settings: Homo sapiens
[13] = tested on: 60 human tumor cell lines; experiment: NCI in vitro tumor cell growth inhibition, whole panel; assay type: cell-based
[14] = tested on: UO-31 (renal cancer); experiment: NCI in vitro tumor cell growth inhibition (GI50); assay type: cell-based; settings: Homo sapiens
[15] = tested on: RPMI-8226 (leukemia); experiment: NCI in vitro tumor cell growth inhibition (GI50); assay type: cell-based; settings: Homo sapiens
[16] = tested on: SK-OV-4 (ovarian cancer); experiment: NCI in vitro tumor cell growth inhibition (GI50); assay type: cell-based; settings: Homo sapiens
[17] = tested on: HOP-62 (non-small cell lung cancer); experiment: NCI in vitro tumor cell growth inhibition (GI50); assay type: cell-based; settings: Homo sapiens
[18] = tested on: EKVX (non-small cell lung cancer); experiment: NCI in vitro tumor cell growth inhibition (GI50); assay type: cell-based; settings: Homo sapiens
[19] = tested on: SK-OV-5 (ovarian cancer); experiment: NCI in vitro tumor cell growth inhibition (GI50); assay type: cell-based; settings: Homo sapiens
[20] = tested on: SK-OV-3 (ovarian cancer); experiment: NCI in vitro tumor cell growth inhibition (GI50); assay type: cell-based; settings: Homo sapiens
[21] = 20-72 hours at 37° C., Nutrient Broth
[22] = Gentamicin, footnote b: MIC in μg/ml

| Compound | MIC [1] | MIC [2] | MIC, Kp [3, 21] | MIC [4] | MIC [5] | MIC [6] | MIC [7] | melting point | MIC [8] | other results |
| --- | --- | --- | --- | --- | --- | --- | --- | --- | --- | --- |
| CCn1cc(C(=O)O)c(=O)c2cc(F)c(N3CCN(CC(C)NN)CC3)cc21 (stereo not drawn) [Exp. 1, 1-Ethyl-6-fluoro-7-[4-(2-hydrazinopropyl)-1-piperazinyl]-4-oxo-1,4-dihydroquinoline-3-carboxylic acid] | 32.1 µM (≈ 12.6 µg/mL) | 16.1 µM (≈ 6.3 µg/mL) | 0.064 µM | 2.01 µM (≈ 0.787 µg/mL) | 16.1 µM (≈ 6.3 µg/mL) | 4.01 µM (≈ 1.57 µg/mL) | 2.01 µM (≈ 0.787 µg/mL) | 208 °C (dec.) | 16.1 µM (≈ 6.3 µg/mL) |  |
| CCn1cc(C(=O)O)c(=O)c2cc(F)c(N3CCN(CC(C)=NO)CC3)cc21 [Exp. 2, 1-Ethyl-6-fluoro-7-[4-(2-hydroxyiminopropyl)-1-piperazinyl]-4-oxo-1,4-dihydroquinoline-3-carboxylic acid] |  | 32.1 µM (≈ 12.5 µg/mL) | 0.13 µM | 0.51 µM (≈ 0.199 µg/mL) | 16 µM (≈ 6.25 µg/mL) | 0.51 µM (≈ 0.199 µg/mL) | 2 µM (≈ 0.781 µg/mL) | 218 °C (dec.) |  |  |
| CCn1cc(C(=O)O)c(=O)c2cc(F)c(N3CCN(CC(=NO)c4ccccc4)CC3)cc21 [Exp. 3, 1-Ethyl-6-fluoro-4-oxo-7-[4-(2-hydroxyimino-2-phenylethyl)-1-piperazinyl]-1,4-dihydroquinoline-3-carboxylic acid] |  | 55.3 µM (≈ 25 µg/mL) | 0.22 µM | 0.86 µM (≈ 0.389 µg/mL) | 13.8 µM (≈ 6.24 µg/mL) | 0.44 µM (≈ 0.199 µg/mL) | 3.45 µM (≈ 1.56 µg/mL) | 203 °C (dec.) |  |  |
| CCn1cc(C(=O)O)c(=O)c2cc(F)c(N3CCN(CC(=O)c4ccccc4)CC3)c(F)c21 [Exp. 4, 1-Ethyl-6,8-difluoro-1,4-dihydro-4-oxo-7-(4-phenacyl-1-piperazinyl)-quinoline-3-carboxylic acid] | 13.7 µM (≈ 6.24 µg/mL) | 3.43 µM (≈ 1.56 µg/mL) | 0.055 µM | 0.22 µM (≈ 0.1 µg/mL) | 0.86 µM (≈ 0.392 µg/mL) | 1.71 µM (≈ 0.779 µg/mL) | 0.22 µM (≈ 0.1 µg/mL) | 167 °C (dec.) | 13.7 µM (≈ 6.24 µg/mL) |  |
| CCn1cc(C(=O)O)c(=O)c2cc(F)c(N3CCN(CC(=NO)c4ccc(OC)cc4)CC3)cc21 [Exp. 5, 1-Ethyl-6-fluoro-7-{4-[2-hydroxyimino-2-(4-methoxyphenyl)-ethyl]-1-piperazinyl}-4-oxo-1,4-dihydroquinoline-3-carboxylic acid] | 13 µM (≈ 6.26 µg/mL) | 104 µM (≈ 50.2 µg/mL) | 0.027 µM | 1.62 µM (≈ 0.782 µg/mL) | 25.9 µM (≈ 12.5 µg/mL) | 0.41 µM (≈ 0.198 µg/mL) | 3.24 µM (≈ 1.56 µg/mL) | 221 °C (dec.) | 3.24 µM (≈ 1.56 µg/mL) | GI50 [9]: 6.91 µM; GI50 [10]: 24.4 µM; GI50 [11]: 17.7 µM; GI50 [12]: 93.3 µM; GI50 ([13]; Homo sapiens, Mean values over 60 cell lines tested): 31.8 µM; Range ([13]; Ratio of GI50 value for the least sensitive cell to the most sensitive cell): 182; GI50 [14]: 0.55 µM; GI50 [15]: 38.4 µM; GI50 [16]: 55.1 µM; GI50 [17]: 52.3 µM; GI50 [18]: 46.8 µM; GI50 [19]: > 100 µM; GI50 [20]: 37.2 µM |
| CCn1cc(C(=O)O)c(=O)c2cc(F)c(N3CCN(CC(=NO)c4ccc(OC)cc4)CC3)c(F)c21 [Exp. 6, 1-Ethyl-6,8-difluoro-7-{4-[2-hydroxyimino-2-(4-methoxy-phenyl)ethyl]-1-piperazinyl}-4-oxo-1,4-dihydroquinoline-3-carboxylic acid] | 6.34 µM (≈ 3.17 µg/mL) | 6.34 µM (≈ 3.17 µg/mL) | 0.10 µM | 0.4 µM (≈ 0.2 µg/mL) | 3.16 µM (≈ 1.58 µg/mL) | 0.2 µM (≈ 0.1 µg/mL) | 0.4 µM (≈ 0.2 µg/mL) | 176 °C (dec.) | 3.16 µM (≈ 1.58 µg/mL) |  |
| CCn1cc(C(=O)O)c(=O)c2cc(F)c(N3CCN(CC(=NOC)c4ccc(OC)cc4)CC3)cc21 [Exp. 7, 1-Ethyl-6-fluoro-7-{4-[2-methoxyimino-2-(4-methoxyphenyl)-ethyl]-1-piperazinyl}-4-oxo-1,4-dihydroquinoline-3-carboxylic acid] | 12.6 µM (≈ 6.26 µg/mL) | 202 µM (≈ 100 µg/mL) | 1.57 µM | 6.31 µM (≈ 3.13 µg/mL) | 202 µM (≈ 100 µg/mL) | 1.57 µM (≈ 0.78 µg/mL) | 6.31 µM (≈ 3.13 µg/mL) | 165 °C (dec.) | 12.6 µM (≈ 6.26 µg/mL) |  |
| COc1ccc(C(CN2CCN(c3cc4c(cc3F)c(=O)c(C(=O)O)cn4-c3ccc([N+](=O)[O-])cc3F)CC2)=NO)cc1 [Exp. 8, 1-(4-Nitro-2-fluorophenyl)-6-fluoro-7-{4-[2-hydroxyimino-2-(4-methoxyphenyl)ethyl]-1-piperazinyl}-4-oxo-1,4-dihydroquinoline-3-carboxylic acid] | 1.32 µM (≈ 0.783 µg/mL) | 21.1 µM (≈ 12.5 µg/mL) | 0.08 µM | 1.32 µM (≈ 0.783 µg/mL) | 42.2 µM (≈ 25 µg/mL) | 0.34 µM (≈ 0.202 µg/mL) | > 169 µM |  | 5.28 µM (≈ 3.13 µg/mL) |  |
| CCn1cc(C(=O)O)c(=O)c2cc(F)c(N3CCN(C(=N)C(O)c4ccc(F)cc4)CC3)c(F)c21 (stereo not drawn) [Exp. 11, 1-Ethyl-6,8-difluoro-7-{4-[2-(4-fluorophenyl)-2-hydroxy-iminoethyl]-1-piperazinyl}-4-oxo-1,4-dihydro-3-quinolinecarboxylic acid] |  |  |  |  |  |  |  | 201 °C (dec.) |  |  |
| COc1ccc(C(=O)CN2CCN(c3cc4c(cc3F)c(=O)c(C(=O)O)cn4-c3ccc(N)cc3F)CC2)cc1 [Exp. 12, 1-(4-amino-2-fluorophenyl)-6-fluoro-7-{4-[2-(4-methoxy-phenyl)-2-oxoethyl]-1-piperazinyl}-4-oxo-1,4-dihydroquinoline-3-carboxylic acid] | 1.82 µM (≈ 0.998 µg/mL) | 18.2 µM (≈ 9.98 µg/mL) | 0.05 µM | 0.55 µM (≈ 0.302 µg/mL) | 5.74 µM (≈ 3.15 µg/mL) | 0.55 µM (≈ 0.302 µg/mL) | 18.2 µM (≈ 9.98 µg/mL) | 143 °C (dec.) | 5.47 µM (≈ 3 µg/mL) |  |
| CCn1cc(C(=O)O)c(=O)c2cc(F)c(N3CCNCC3)cc21 [Norfloxacin, reference compound] | 19.6 µM (≈ 6.26 µg/mL) | 9.81 µM (≈ 3.13 µg/mL) | 0.041 µM | 0.63 µM (≈ 0.201 µg/mL) | 1.22 µM (≈ 0.39 µg/mL) | 4.89 µM (≈ 1.56 µg/mL) | 0.16 µM (≈ 0.0511 µg/mL) |  | 9.81 µM (≈ 3.13 µg/mL) |  |
| CC1COc2c(N3CCN(C)CC3)c(F)cc3c(=O)c(C(=O)O)cn1c23 (stereo not drawn) [Ofloxacin, reference compound] | 4.32 µM (≈ 1.56 µg/mL) | 1.08 µM (≈ 0.39 µg/mL) | 0.036 µM | 0.28 µM (≈ 0.101 µg/mL) | 2.16 µM (≈ 0.781 µg/mL) | 1.08 µM (≈ 0.39 µg/mL) | 0.069 µM (≈ 0.0249 µg/mL) |  | 4.32 µM (≈ 1.56 µg/mL) |  |
| Gentamicin [reference compound] |  |  |  |  |  |  |  |  |  | MIC, SpEAR [1, 22]: 100 µg/mL; MIC, Mr [2, 22]: 0.20 µg/mL; MIC, Kp [3, 22]: 0.2 µg/mL; MIC, Ec [4, 22]: 0.20 µg/mL; MIC, Pa [5, 22]: 0.39 µg/mL; MIC, MRSA [6, 22]: 0.78 µg/mL; MIC, Pv [7, 22]: 0.1 µg/mL; MIC, EfVRE [8, 22]: 50 µg/mL |
